In article PMC3691182 (PLoS ONE, 2013):
Entries after “also recorded” stand apart in the source; their conditions may differ. Like-named read-outs stand apart in the source and are kept apart here.

Key:
[1] = test system: TTX-S voltage-gated sodium channel of DRG neurons; experiment: Whole-cell patch-clamp, inhibition of TTX-S sodium currents in DRG neurons; type: cell-based, adult Sprague-Dawley rat
[2] = test system: TTX-R sodium channel of DRG neurons; experiment: Whole-cell patch-clamp, TTX-R sodium currents in DRG neurons; type: cell-based, adult Sprague-Dawley rat
[3] = test system: TTX-S sodium channels in rat DRG neurons; experiment: Time course for block of TTX-S currents and reversal of block on washing; type: cell-based
[4] = test system: TTX-S sodium channels in rat DRG neurons; experiment: Current-voltage relationship, conductance, steady-state activation and inactivation of TTX-S sodium channel; type: cell-based
Nav1.7 = experiment: Triple-pulse protocol, recovery of Nav1.7 current following strong depolarization (HEK293 cells); type: cell-based
[5] = test system: neuronal TTX-sensitive voltage-gated sodium channels; conditions: cited from earlier work
[6] = test system: TTX-resistant voltage-gated sodium channels; conditions: in words; reference not given; cited from earlier work
Description: Previous research has identified nearly 150 of these components in the Chinese bird spider, Ornithoctonus huwena, which is one of the most venomous spiders in China. Most of the toxins have six cystine residues adopting inhibitor cystine-knot (ICK) motif with a 1–4, 2–5, 3–6 disulfide bonding pattern; the biological activities of some peptide toxins were thoroughly investigated.

sodium channel = conditions: cited from earlier work
Description: Huwentoxin-IV (HWTX-IV), a tetrodotoxin-sensitive (TTX-s) sodium channel antagonist, is found in the venom of the Chinese spider Ornithoctonus huwena. A naturally modified HWTX-IV (mHWTX-IV), having a molecular mass 18 Da lower than HWTX-IV, has also been isolated from the venom of the same spider. […] Previous research has identified nearly 150 of these components in the Chinese bird spider, Ornithoctonus huwena, which is one of the most venomous spiders in China. […] To address this question, we adopted a triple-pulse protocol in which a test pulse (−10 mV) following a strong depolarization (+200 mV, 500 ms) was used to measure available TTX-S sodium currents.

domain II of Nav1.7 = conditions: in words; ref [11]; cited from earlier work
DRG neuron = test system: DRG neuron; design: method as in PMID 16267209, PMID 19409400; conditions: in words; ref [27], [28]; cited from earlier work

Huwentoxin-IV [HWTX-IV]
IC50 [1]: 42.9 ± 1.72 nM
Inhibition of TTX-S currents [1]: almost completely inhibited; also recorded: significantly reduced
Effect on TTX-R sodium currents [2]: no effect
Dissociation after washing, in words [3]: slowly dissociated
Time course for inhibition of TTX-S currents [3]: 25.4 s
Time course of dissociation after washing [3]: 88.3 s
Channel conductance (conductance–voltage curve) [4]: did not change channel conductance
Steady-state activation and inactivation, comparison of HWTX-IV and mHWTX-IV [4]: no obvious difference
Steady-state inactivation of TTX-S sodium channel [4]: No shift of the steady-state inactivation curve
Threshold of activation and reversal potential of TTX-S sodium channel (I–V) [4]: did not change the threshold of activation and alter the reversal potential
Recovery of Nav1.7 current, +50 mV (Nav1.7; 1 µM toxin, HEK293 cells, +50 mV for 500 ms, in words): little recovery
Recovery of Nav1.7 current, +100 mV (Nav1.7; 1 µM toxin, HEK293 cells, +100 mV for 500 ms, in words): little recovery
Recovery of Nav1.7 current, +150 mV (Nav1.7; 1 µM toxin, HEK293 cells, +150 mV, five cells): about 34%
Recovery of Nav1.7 current, +200 mV (Nav1.7; 1 µM toxin, HEK293 cells, +200 mV, five cells): ~78%
Recovery of Nav1.7 current by extreme depolarization (summary) (Nav1.7; abstract summary, in words): voltage-dependent and was induced by extreme depolarization
Inhibition of TTX-S sodium channel in DRG neurons (literature) [5]: specifically inhibited
IC50 ([5]; read-out: IC50, inhibition of neuronal TTX-sensitive sodium channels (literature)): 30 nM
Effect on TTX-resistant sodium channels (literature) [6]: no significant effect
Dissociation at moderate depolarization (sodium channel): dissociates at moderate voltage depolarization voltages
Reversal of binding to sodium channels by strong depolarization (literature) (sodium channel): can be reversed by strong depolarization
Reversibility of inhibition by strong depolarization (literature) (sodium channel): reversible by strong depolarization
Voltage above which currents can be observed (dissociation by strong depolarization) (sodium channel): > 70 mV
Binding site on Nav1.7 (domain II of Nav1.7): binds with the S3–S4 linker D816 and E818 in domain II of Nav1.7 by electrostatic interaction

Jingzhaotoxin-IX [JZTX-IX]
Action under extreme depolarization on DRG neuron compared with mHWTX-IV (DRG neuron): similar

ProTx-II
Reversal of binding to sodium channels by strong depolarization (literature) (sodium channel; in words, ref [11], [19], [20]): can be reversed by strong depolarization

jingzhaotoxin-34 [JZTX-34]
Inhibition of neuronal TTX-sensitive sodium channels (literature) ([5]; in words, ref [9]): inhibited neuronal TTX-sensitive voltage-gated sodium channels
